A short description of data set [1]: in vitro. The settings on record: tissue homogenate.
Data set [2] deals with T1, rat Mrp2 (Rattus norvegicus, UniProt Q63120). The settings on record: for % Net decrease in ATP-dependent CP-I uptake in presence of bilirubin: bilirubin 10 µM, uptake with modulator alone as control, duplicate wells. On the procedure: Figure 3 Effect of bilirubin on the transport of CP-I using rat Mrp2 vesicles in the presence and absence of modulators. Rat Mrp2 vesicles (50 µg/well) were preincubated with and without bilirubin (10 µM) and modulators for 3 min at 37 °C. % Net decrease in ATP-dependent CP-I uptake in presence of bilirubin was calculated by taking CP-I uptake values in presence of modulators as control. All data values presented as mean of single experiment performed in duplicate wells.

Data set [3] addresses T2, Mrp2 (Rattus norvegicus, UniProt Q63120). Put plainly: Biliary and renal secretion of endogenous CP-I and CP-III in bile duct cannulated rats before and after modulators. The settings on record: for Bile Flow: cumulative volume / total collection time, mean ± SD, three animals; for Mrp2-mediated CP-I transport in vivo (biliary clearance, cumulative amount in bile) before and after treatment: bile duct cannulated rats.

Data set [4] can be described thus: Plasma and liver concentrations of modulators after i.v. infusion in rats. The format is in vivo. The settings on record: Sprague-Dawley, rat; for Kp at 3 h: liver at terminal time point (3 h); for Cmax: plasma, iv.
Data set [5] deals with T1, rat Mrp2. The settings on record: for effect on rat Mrp2-mediated CP-I transport in vitro: 15 min, result in words. On the procedure:
Rat Mrp2-mediated CP-I transport was measured in inside-out membrane vesicles. Mrp2 vesicle protein (50 µg/well) were preincubated with modulators at above reported concentrations at 37 °C and reaction was started by adding CP-I (5 µM) and incubated for 15 min. NP; not performed. For more on experimental details refer to Section 2.3. Dotted line represents basal level (100%) of CP-I uptake in control wells in the presence of ATP with no modulators added. All data values presented as mean and SD of single experiment performed in triplicate wells.

The conditions of data set [6]: rat, in vivo.
Data set [7] has as its system human MRP2. The settings on record: cited from earlier work; for stimulation of CP-I transport in human MRP2 vesicles / effect on MRP2 when CP-I is used as probe substrate: result in words ref 10.
The test system of data set [8] is Mrp2. Details: method as in PMID 15194559. The settings on record: rats ref 17; cited from earlier work.
Details of data set [9]: method as in PMID 11457649, PMID 9521735. The settings on record: humans, in presence of dapsone ref 22, 23; cited from earlier work.
Data set [10] concerns flurbiprofen metabolism in liver microsome. Also noted: method as in PMID 11457649, PMID 9521735. The settings on record: in presence of dapsone ref 22, 23; cited from earlier work.
For data set [11], the system named is Mrp2. Also noted: method as in PMID 19118132. The settings on record: cited from earlier work.
Data set [12] has as its system Mrp2. Details: method as in PMID 27964938. The settings on record: in the presence of metformin, plasma exposure not affected ref 9; cited from earlier work.
The subject of data set [13] is Oatp. Put plainly: CP-I uptake in suspended rat hepatocytes with and without rifamycin SV. The format is cell-based. The settings on record: rifamycin SV 1 mM, CP-I 0.5 µM, 37 °C, result in words.
For data set [14], the target named is T2, Mrp2. The settings on record: in vivo.
For data set [15], the target named is T1, rat Mrp2.

The values below come from PMC6161027, “In Vitro Stimulation of Multidrug Resistance-Associated Protein 2 Function Is Not Reproduced In Vivo in Rats” (Pharmaceutics, 2018).

Where “and” joins values, the source holds several entries; their conditions need not be identical. Equal values may be shown once. Entries after “also recorded” stand apart in the source; their conditions may differ. Where a name gives a salt, the structure may show the parent alone. Read-outs that look alike come from different tables or passages of the source.

T1 sequence (Q63120 whole entry): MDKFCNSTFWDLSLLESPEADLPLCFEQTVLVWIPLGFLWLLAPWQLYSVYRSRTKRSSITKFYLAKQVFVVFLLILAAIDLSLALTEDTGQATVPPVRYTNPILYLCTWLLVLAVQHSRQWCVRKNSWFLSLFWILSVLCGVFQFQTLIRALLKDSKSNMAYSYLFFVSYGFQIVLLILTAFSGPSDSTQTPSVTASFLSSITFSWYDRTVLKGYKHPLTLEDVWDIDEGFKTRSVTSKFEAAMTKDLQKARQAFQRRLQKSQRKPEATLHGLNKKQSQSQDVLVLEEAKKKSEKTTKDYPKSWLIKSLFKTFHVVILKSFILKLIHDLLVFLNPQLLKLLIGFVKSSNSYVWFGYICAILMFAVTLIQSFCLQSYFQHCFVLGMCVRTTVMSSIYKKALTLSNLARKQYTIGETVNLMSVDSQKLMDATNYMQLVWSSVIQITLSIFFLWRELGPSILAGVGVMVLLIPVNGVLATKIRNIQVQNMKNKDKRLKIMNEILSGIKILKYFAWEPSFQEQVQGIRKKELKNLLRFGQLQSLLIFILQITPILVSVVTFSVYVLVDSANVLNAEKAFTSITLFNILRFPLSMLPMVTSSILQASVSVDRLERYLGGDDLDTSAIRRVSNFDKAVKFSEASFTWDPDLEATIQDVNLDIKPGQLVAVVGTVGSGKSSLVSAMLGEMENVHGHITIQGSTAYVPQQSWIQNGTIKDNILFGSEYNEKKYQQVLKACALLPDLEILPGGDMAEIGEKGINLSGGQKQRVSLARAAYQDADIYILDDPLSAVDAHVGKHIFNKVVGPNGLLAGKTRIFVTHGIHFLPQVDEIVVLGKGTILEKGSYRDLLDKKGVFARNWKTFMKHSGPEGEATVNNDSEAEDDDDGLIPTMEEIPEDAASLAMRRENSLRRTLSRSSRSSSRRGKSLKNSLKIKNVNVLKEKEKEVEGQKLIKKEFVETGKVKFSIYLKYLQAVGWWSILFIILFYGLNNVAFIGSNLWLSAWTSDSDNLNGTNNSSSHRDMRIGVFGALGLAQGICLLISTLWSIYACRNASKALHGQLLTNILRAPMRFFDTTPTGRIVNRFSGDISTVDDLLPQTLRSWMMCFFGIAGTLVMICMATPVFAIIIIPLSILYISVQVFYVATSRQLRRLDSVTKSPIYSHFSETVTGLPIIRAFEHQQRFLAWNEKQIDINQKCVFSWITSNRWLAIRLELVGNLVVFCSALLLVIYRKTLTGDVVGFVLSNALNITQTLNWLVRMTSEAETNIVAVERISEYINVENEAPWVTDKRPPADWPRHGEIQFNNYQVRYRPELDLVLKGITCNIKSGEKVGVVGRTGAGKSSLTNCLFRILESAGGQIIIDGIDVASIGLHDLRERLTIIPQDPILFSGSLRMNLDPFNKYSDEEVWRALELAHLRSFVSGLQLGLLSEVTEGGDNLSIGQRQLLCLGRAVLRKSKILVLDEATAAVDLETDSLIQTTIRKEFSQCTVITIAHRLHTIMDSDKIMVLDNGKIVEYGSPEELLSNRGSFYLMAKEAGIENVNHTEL
T2 sequence (Q63120 whole entry): as above

In turn, `O=C1c2c(O)ccc(O)c2C(=O)c2c(NCCNCCO)ccc(NCCNCCO)c21` [Mitoxantrone, Mitoxantrone hydrochloride] returned a fraction unbound at 6 h, 10 µM in data set [1] of 0.0003. For the same molecule, the “% Net decrease in ATP-dependent CP-I uptake in presence of bilirubin” value in data set [2] (modulator 200 µM) is 34% and 42%. Besides, the “Bile Flow” value in data set [3] (after mitoxantrone 6 mg/kg i.v.) was found to be 1.05 ± 0.11 mL/h; in data set [3] (after mitoxantrone 15 mg/kg i.v.), 1.38 ± 0.56 mL/h. Also, the “Mrp2-mediated CP-I transport in vivo (biliary clearance, cumulative amount in bile) before and after treatment” value in [3] (result in words) was “no significant difference”. Besides, the “biliary excretion of CP-I and III” value in data set [3] (mitoxantrone 6 mg/kg, between 0.25 and 0.5 h, result in words) is “significant increase”. Moreover, the “biliary secretion of CP-I” value in data set [3] (mitoxantrone 15 mg/kg, from 0.33 to 1.25 h, result in words) is recorded as “decreased”. Also, the concentration at 3 h in data set [4] (intravenous, 6 mg/kg i.v., liver homogenate, LC-MS/MS, read-out: Liver Total Concentrations) amounted to 854 µM; in [4] (intravenous, 15 mg/kg i.v., liver homogenate, LC-MS/MS, read-out: Liver Total Concentrations), 950 µM; in data set [4] (liver (unbound), intravenous, 6 mg/kg i.v., Fu,liver x total liver concentration, read-out: Liver Unbound Concentrations) it was 0.26 µM. The Kp at 3 h in data set [4] (liver/plasma, intravenous, 6 mg/kg i.v., read-out: Liver to Plasma Ratio) came out at 199; in [4] (liver/plasma, intravenous, 15 mg/kg i.v., read-out: Liver to Plasma Ratio), 202. Moreover, the figures for the Cmax in data set [4] (6 mg/kg i.v.) and in data set [4] (15 mg/kg i.v.) were 4.3 µM and 4.7 µM, respectively. For the same molecule, in data set [5], the “concentration from which in vitro stimulation started” value is reported as ≥ 1 µM. In addition, the “effect on rat Mrp2-mediated CP-I transport in vitro” value in data set [5] (CP-I 5 µM) was “strongest stimulator; also recorded: stimulated”. The “concentrations giving inhibition of Mrp2 mediated CP-I transport” value in [5] (bell-shaped curve, higher concentrations) is > 250 µM. The “concentrations giving stimulation of Mrp2 mediated CP-I transport” value in [5] (bell-shaped curve, lower concentrations) is recorded as “up to 250 µM”. In addition, the “toxicity limiting the dose” value in [6] is recorded as “observed toxicity”. Also, the “stimulation of CP-I transport in human MRP2 vesicles” value in [7] was “significant stimulation”.
With `CC(=O)[C@H]1CC[C@H]2[C@@H]3CCC4=CC(=O)CC[C@]4(C)[C@H]3CC[C@]12C` [Progesterone, progesterone], the fraction unbound at 6 h, 10 µM in data set [1] was 0.0094. The “% Net decrease in ATP-dependent CP-I uptake in presence of bilirubin” value in data set [2] (modulator 100 µM) is 17% and 12%. For the same molecule, the “Bile Flow” value in [3] (after progesterone 1 mg/kg i.v.) is 1.62 ± 0.39 mL/h. Moreover, the “Mrp2-mediated CP-I transport in vivo (biliary clearance, cumulative amount in bile) before and after treatment” value in data set [3] (result in words) is “did not stimulate”. Moreover, the “biliary secretion of CP-III” value in data set [3] (progesterone 1 mg/kg, from 0.17 to 1.5 h, result in words) is “significant decrease”. The concentration at 2 h in data set [4] (intravenous, 1 mg/kg i.v., liver homogenate, LC-MS/MS, read-out: Liver Total Concentrations) is 197 µM; in data set [4] (liver (unbound), intravenous, 1 mg/kg i.v., Fu,liver x total liver concentration, read-out: Liver Unbound Concentrations), 1.86 µM. The Kp at 2 h in data set [4] (liver/plasma, intravenous, 1 mg/kg i.v., liver at terminal time point (2 h), read-out: Liver to Plasma Ratio) stood at 1.2. In addition, the concentration in data set [4] (1 mg/kg i.v.) peaked (Cmax) at 165 µM. In addition, the “effect on rat Mrp2-mediated CP-I transport in vitro” value in data set [5] (CP-I 5 µM) is reported as “stimulated”. The “stimulation of Mrp2 mediated transport of CP-I” value in data set [5] (modulator 1 µM, CP-I 5 µM) is given as > 1.5 fold. The “stimulation of CP-I transport in human MRP2 vesicles” value in data set [7] is reported as “significant stimulation”.
As to `CCc1oc2ccccc2c1C(=O)c1cc(Br)c(O)c(Br)c1` [benzbromarone], the “effect on MRP2 when CP-I is used as probe substrate” value in data set [7] is reported as “inhibitors”.
In the case of `CC1(C)S[C@@H]2[C@H](NC(=O)Cc3ccccc3)C(=O)N2[C@H]1C(=O)O` [benzyl penicillin], the “transient enhancement of biliary clearance of glutathione (GSH)” value in [8] was “about four-fold”.
Consider `C=CC1=C(C)/C(=C/c2[nH]c(Cc3[nH]c(/C=C4\NC(=O)C(C)=C4C=C)c(C)c3CCC(=O)O)c(CCC(=O)O)c2C)NC1=O` [bilirubin], for which the “effect on in vitro stimulation of Mrp2-mediated CP-I transport” value in data set [2] (10 µM, result in words) is given as “suppressed”.
Consider `Nc1ccc(S(=O)(=O)c2ccc(N)cc2)cc1` [dapsone], for which the “increase in flurbiprofen clearance” value in [9] was 10%. Also, the “stimulation of flurbiprofen metabolism” value in data set [10] is “two-fold”.
Take `COc1ccc2c(c1)c(CC(=O)O)c(C)n2C(=O)c1ccc(Cl)cc1` [indomethacin]: in data set [11] (rats ref 16), the “decrease of E17βG half-life” value was 40%. The “effect on E17βG biliary clearance” value in [11] (rats, result in words ref 16) is listed as “increases”. Moreover, the “effect on MRP2 when CP-I is used as probe substrate” value in data set [7] is recorded as “inhibitors”.
For the molecule `CN(C)C(=N)N=C(N)N` [metformin], the “increase of atorvastatin liver concentration” value in [12] was 1.64 fold.
Consider `CO[C@H]1/C=C/O[C@@]2(C)Oc3c(C)c(O)c4c(O)c(cc(O)c4c3C2=O)NC(=O)/C(C)=C\C=C\[C@H](C)[C@H](O)[C@@H](C)[C@@H](O)[C@@H](C)[C@H](OC(C)=O)[C@@H]1C` [rifamycin, rifamycin SV], for which, in data set [13], the “effect on CP-I uptake in isolated rat hepatocytes” value is given as “rifamycin sensitive”.
Consider coproporphyrin-I [CP-I], for which, in data set [14], the “average biliary clearance relative to CP-III” value is given as “four-fold higher” and the “basal level excreted in rat bile in 2 h” value is “about 600 pmoles”. Further, the Km in data set [15] is 15 ± 6 µM. In addition, the “apparent Vmax” value in [15] (CP-I uptake, rat Mrp2 membrane vesicles, 37 °C, 15 min, mean ± SD) worked out at 161 ± 20 pmol/min/mg protein. Further, the “ATP over AMP ratio of CP-I uptake” value in [15] (rat Mrp2 membrane vesicles) is 23. Besides, the Km in data set [7] was 7.7 µM.
On to coproporphyrin-III [CP-III], for which the “urinary clearance relative to CP-I” value in [3] (control experiments) is on record as “three-fold higher”. Also, in data set [3] (endogenous, no modulator), the “basal level excreted in rat bile in 2 h” value is ~1200 pmol and the “plasma AUC (0–2 h), basal” value is ~9.5 nM·h. Moreover, the “basal plasma levels relative to CP-I” value in [3] (rats) is recorded as “three-four times higher”.

As usually defined, the fraction unbound is free concentration divided by total concentration. Higher therefore signals much free substance. The Cmax is the maximum level reached in the sampled fluid or tissue. A word on the Km: it is the concentration of substrate that gives half-maximal velocity.
